Measured values taken from patent US11583543B2, “Ambroxol to improve and/or extend healthspan, lifespan and/or mental acuity” (NeueRe, LLC, priority 2017, dated 2023).

Experiments:
[1] = test system: male BDF1 mice; experiment: Lifespan study with ambroxol as chow supplement; format: in vivo, mouse
Description: Group 1 represents control animals that were not administered ambroxol; Group 2 represents animals administered 50 mg/kg (body weight) of ambroxol daily as a chow supplement, starting at 2 months of age
Weaned male BDF1 mice were raised from pups, housed 1-4 animals per cage and fed Teklad 7013 NIH-31 rodent chow and water ad libitum. At 2 months of age, the mice were divided into two roughly equal groups of 22-25 animals. One group continued to be fed the Teklad chow as before (control); the other group was switched to Teklad chow formulated with ambroxol at 300 mg per kg of chow. This formulation was designed, based on the average ad libitum chow consumption of an adult male BDF1 mouse, to deliver 50 mg/kg/day (based on body mass) to each mouse in the treated group. Mice were maintained on this diet until they died naturally or until they reached 16 months of age, at which time the experiment ended. During the course of the experiment all mice were periodically removed from their cages and handled in the course of subjecting them to various sensorimotor, cognitive, and/or behavioral tests.
Group 1 represents control animals that were not administered ambroxol; Group 2 represents animals administered 50 mg/kg of ambroxol daily as a chow supplement, starting at 2 months of age.

[2] = test system: mice; experiment: Novel place recognition cognitive acuity test; format: in vivo, mouse; settings: tested at 7 months, FIG. 2
Description: FIG. 2. Mice were tested at age 7 months for novel place recognition. This is a cognitive test to measure short term working memory, involving recognition of a familiar object found in an unfamiliar place (see Magen et al (2012) Eur. J. Neurosci. 35: 870-882; Magen and Chesselet (2011) J. Parkinson's Disease 1: 217-227). A Discrimination Index (DI)=(tnovel−tfamiliar)/(tnovel+tfamiliar) is used to assess the time spent exploring near the object in a novel place (“tnovel”) vs. the total exploration time overall. Discrimination Index scores greater than zero are considered to indicate good place recognition memory. In this experiment, three groups of mice, with at least 13 mice in each group, were given a cognitive acuity test at 7 months.

[3] = test system: NIH3T3 cells; experiment: Basal macroautophagy, mCherry-GFP-LC3 tandem reporter, high content microscopy; format: cell-based, mouse; settings: 24 h in complete media; autophagic vacuoles, autophagosomes, autolysosomes; FIG. 3
Description: FIG. 3. Effect of Ambroxol on basal macroautophagy in mouse cells. Mouse fibroblasts in culture (NIH3T3 cells) expressing the tandem reporter mCherry-GFP-LC3 were exposed to the indicated concentrations of Ambroxol for 24 h in complete media. Panel A. Schematic of the autophagic compartments analyzed. Panels B-D. Number of autophagic vacuoles (AV) (Panel B); autophagosomes (APG) (Panel C); and autolysosomes (AUT) (Panel D). All values are mean+s.e.m. and quantifications were done in at least 2,500 cells per condition in three different experiments using high content microscopy. Differences with untreated (0 uM ambroxol) are significant for *p<0.05 **p<0.01 and ***p<0.001.
Mouse fibroblasts (NIH3T3) were obtained from the American Type Culture Collection (ATCC). […] The number of particles/puncta per cell was quantified using the ‘particle identifier’ function in the cytosolic region after thresholding in non-saturated images. In all cases, focal plane thickness was set at 0.17 μm and sections with maximal nucleus diameter were selected for quantification. […] Macroautophagy activity in intact cells was measured upon transduction with lentivirus carrying the mCherry-GFP-LC3 tandem construct. […] Cells were plated on glass-bottom 96 well plates and fluorescence was read in both channels. […] Autophagic flux was determined as the conversion of autophagosomes (yellow) to autolysosomes (red only puncta).

Nc1c(Br)cc(Br)cc1CN[C@H]1CC[C@H](O)CC1 [Ambroxol, trans-4-(2-amino-3,5-dibromobenzylamino) cyclohexanol]
lifespan ([1]; 50 mg/kg daily as chow supplement from 2 months of age, until 16 months, vs control (Group 1), FIG. 1): increase lifespan
healthspan (health of surviving animals when sacrificed) ([1]; Group 2, 50 mg/kg daily, vs Group 1 control, preliminary data): at least as healthy
cognitive acuity ([2]; High Dose group 150 mg/kg/day): best cognitive acuity results
cognitive acuity ([2]; Low Dose group 50 mg/kg/day): results in between the Control Group and the “High Dose” Group
macroautophagy [3]: Induces Macroautophagy
